From the NIST ThermoML archive (doi:10.1021/je200531k)
± gives the expanded uncertainty stated by the source.

Settings: Crystal; DTA

C=C(C)[C@@H]1CC[C@]2(C(=O)O)CC[C@]3(C)[C@H](CC[C@@H]4[C@@]5(C)CC[C@H](O)C(C)(C)[C@@H]5CC[C@]43C)[C@@H]12 [betulinic acid]
Normal melting temperature: 315.30 ± 0.5 °C
